Results reported in patent publication US20250345350A1, “TREATING PAIN ASSOCIATED WITH CENTRAL SENSITIZATION” (Medicon Pharmaceuticals, Inc., priority 2022, published 2025).
Like-named read-outs stand apart in the source and are kept apart here.

Columns and labels:
[1] = test system: NTG-induced chronic migraine in mice; test: PWT (von Frey), NTG-induced chronic migraine model, oral (Example 16)
Procedure: In particular, mice receive sublingual NTG 0.4 mg in the form of a finely crushed 0.4 mg NTG tablet (Greenstone Brand) every two days, receiving a total of five doses. For control mice, an NTG placebo (Practi-Nitroglycerin Sublingual 0.4 mg Simulated Medication tablet) was administered in the same way.
Group 1: placebo NTG (i.e, no NTG treatment, n=8) • 2. Group 2: NTG (n=8) • 3. Group 3: NTG+vehicle (n=8) • 4. […] Group 5: NTG+sulindac (n=8)
Mechanical allodynia was determined using von Frey filaments in line with that performed in the earlier Examples. The PWT test was performed prior to NTG (or placebo NTG) administration to determine baseline values, as indicated. […] The mechanical threshold, expressed as g, indicates the force of the von Frey filament to which the animal reacted.

[2] = test system: PHN induced by HSV-1 KOS strain virus in BALB/c mice; test: PWT (von Frey), HSV-1 mouse model of PHN, topical (Example 20); type: in vivo; conditions: Post-inoculation and treatment, sulindac 5% gel on both hind paws three times a day for three days
Procedure: PHN was induced in mice by infecting them with the HSV-1 KOS strain virus and following established protocols (Ou et al, Front Immunol, 14, 1026269, 2023; Takasaki et al, Anesthesiology, 96(5), 1168-74, 2002).
; Reckitt Benckiser). Three days later, HSV-1 (10^6 PFUs in 20 μl PBS) was inoculated on the shin of the right hind paw (5×5 mm) after scarification with sandpaper. The virus was applied directly to the scarified area. The contralateral hind paw was without inoculation. Mock infection was performed using the same virus inactivated by heating at 60° C. for 1 h.
. Group 1: sham inoculated (n=5-7) • 2.
In a second experiment, the effect of the parent compound, sulindac, was tested in the same mouse model. Five days post-inoculation, sulindac (as a 5% gel), or vehicle control were administered topically onto both hind paws of mice three times a day for three days.
. Group 1: vehicle control (n=5-7) • 2. Group 2: sulindac 5% (n=5-7)

[3] = test system: STZ-induced central sensitization in Sprague-Dawley rats; test: PWT (von Frey), streptozotocin rat model of central sensitization (Example 4); type: in vivo; conditions: 0.7% sulindac hydrogel 3 times a day for 1 week; 5% lidocaine cream once 30 min before; pregabalin 10 mg/kg orally once 1 h before
Procedure: Sprague-Dawley rats were fasted for 4-6 hours before being injected intraperitoneally with 45 mg/kg STZ. This was performed for all experimental groups, except the naive group. In order to prevent hypoglycaemic death, rats received 10% sucrose water as the sole water source for the first 48 hours after injection. In order to ensure only those rats considered diabetic (i.e., having non-fasting plasma glucose levels of >250 mg/dL) were included in the study, blood glucose was measured at 72 hours after the STZ injection.
Four weeks after STZ injection, the rats were randomised into treatment groups. This delay between STZ injection and treatment allows the establishment of chronic pain (allodynia) associated with central sensitization. […] 5% lidocaine cream (positive control) was applied only once to both hind paws of the rats 30 minutes before measurement of PWT.
The rats were split into 8 study groups, with those in the experimental groups (1-4) having an average body weight of about 225 g, and those in the control groups (5-8) having an average body weight of about 335 g, as follows: • 1. Group 1: naive rats (n=5) • 2. Group 2: STZ only (n=6) • 3. Group 3: STZ plus vehicle (n=6) • 4. […] Group 5: STZ plus oral vehicle (n=8) • 6. Group 6: STZ plus 0.7% sulindac hydrogel (n=7) • 7. Group 7: STZ plus 5% lidocaine cream (n=8) • 8.

[4] = Pharmacokinetics and biodistribution after 3% PS gel on outer surface of eyelid (Example 26); type: in vivo, rabbit; conditions: rabbits, 3% PS gel on outer surface of upper eyelids; for AUC(0-t): read-out: AUC0-24 h; for concentration at 0.5 h / concentration at 1 h / concentration at 2 h / concentration at 4 h / concentration at 8 h / concentration at 24 h: topical, read-out: Amount in tissue, Mean ± SEM
Procedure: The pharmacokinetics and biodistribution of 3% PS gel applied to the outer surface of both upper eyelids was studies in male New Zealand White rabbits.
Eyelid and tissues of the globe were dissected and frozen quickly in liquid nitrogen until the levels of PS and its metabolites were determined by HPLC as described Xie et al. (Br J Pharmacol (2012);165:2152-66).

[5] = test system: paclitaxel-induced central sensitization in C57/BL/6J mice; conditions: day 14; PS hydrogel 5% or 0.7% sulindac 3 times a day; 5% lidocaine cream once 30 min before; pregabalin 10 mg/kg orally once 1 h before
Procedure: Regarding the treatment with lidocaine: 5% lidocaine cream (a positive control) was applied once to both hind paws of the mice 30 minutes before measurement of PWT.
Briefly, for mechanical allodynia, pain threshold responses were measured using the well-established method of von Frey filaments in line with that performed in the earlier Examples. The PWT test was performed on day-8 (before the first dose of paclitaxel), the day of starting treatment (day 0, at which central sensitization was fully established) and day 14 (treatment continued until day 15). The mechanical threshold, expressed as g, indicates the force of the von Frey filament to which the animal reacted.

[6] = test system: NTG-induced migraine in C57BL/6J mice; test: PWT (von Frey), NTG-induced migraine mouse model, topical (Example 13)
Procedure: Specifically, instead of the intraperitoneal injection of NTG, a finely crushed 0.4 mg NTG tablet (Greenstone Brand) was administered sublingually. As a control, a Practi-Nitroglycerin Sublingual 0.4 mg Simulated Medication tablet was used.
For determining mechanical allodynia, pain threshold responses were measured using the well-established method of von Frey filaments in line with that performed in the earlier Examples.
The PWT test, assessing mechanical allodynia, was performed 30 minutes after treatment. The mechanical threshold, expressed as g, indicates the force of the von Frey filament to which the animal reacted.

[7] = Pharmacokinetics and biodistribution after topical PS 8% ointment to hind paws (Example 25); type: in vivo, mouse; conditions: all tissues except the sciatic nerve (higher) and DRG (equal)
Procedure: At 0.5, 1, 3, 5, 12, 18, and 24 h, mice (n=4-5 mice/time point) were euthanized with CO2 inhalation. Blood was drawn immediately after death. Tissues, including paw skin, paw muscle, leg muscle, the sciatic nerve and lumbar DRG bilaterally were dissected quickly, immediately frozen in liquid nitrogen and stored at −80° C. until analyzed.

[8] = PS and metabolites in proximal and distal half of the sciatic nerve (Example 25); type: in vivo, mouse; conditions: sciatic nerve halves, 30 min after last dose
Procedure: In a separate experiment we studied 8 mice with paclitaxel-induced PN treated with PS 8% ointment 3×/d for 2 wks. Mice were euthanized as above 30 minutes after the last dose of PS. From these mice we harvested both sciatic nerves dividing each into proximal and distal halves, and combined the corresponding halves of every two animals for assay of drug levels.

[9] = male, New Zealand White, rabbit, topical or ocular, conjunctiva
[10] = male, New Zealand White, rabbit, topical or ocular, cornea
[11] = male, New Zealand White, rabbit, topical or ocular, eyelid
[12] = male, New Zealand White, rabbit, AH (aqueous humor)
[13] = male, New Zealand White, rabbit, conjunctiva
[14] = male, New Zealand White, rabbit, cornea
[15] = male, New Zealand White, rabbit, eyelid
[16] = male, New Zealand White, rabbit, vitreous

CC1=C(CC(=O)O)c2cc(F)ccc2/C1=C\c1ccc([S+](C)[O-])cc1 (centres unmarked) [sulindac]
PWT, g Mean ± SEM ([1]; Baseline, prior to NTG administration): 1.80 ± 0.12 g | PWT, g Mean ± SEM ([1]; Day 11, orally once a day for 11 days concurrent with NTG, PS 50 mg/kg, sulindac 33 mg/kg): 0.43 ± 0.03 g | PWT, g Mean ± SEM [2]: 0.56 ± 0.06 g | PWT, g Mean ± SEM ([2]; listed as Sulindac): 0.56 ± 0.06 g | PWT, gm Mean ± SEM [3]: 23.2 ± 2.6 gm | Tmax ([4]; eyelid): 1 h | Cmax [4, 9]: 800 nM | AUC(0-t) [4, 9]: 2.5 ± 0.3 µM·h | Tmax ([4]; male, New Zealand White, rabbit, topical or ocular, conjunctiva, read-out: TMax): 8 h | Cmax [4, 10]: 600 nM | half-life [4, 10]: 7.4 h | AUC(0-t) [4, 10]: 2.4 ± 0.5 µM·h | Cmax [4, 11]: 3600 nM | half-life [4, 11]: 1.1 h | AUC(0-t) [4, 11]: 5.5 ± 0.8 µM·h | concentration at 0.5 h [4, 12]: 0 nM | concentration at 1 h [4, 12]: 0 nM | concentration at 2 h [4, 12]: 0 nM | concentration at 4 h [4, 12]: 0 nM | concentration at 8 h [4, 12]: 0 nM | concentration at 24 h [4, 12]: 0 nM | concentration at 0.5 h [4, 13]: 100 ± 100 nM | concentration at 1 h [4, 13]: 200 ± 100 nM | concentration at 2 h [4, 13]: 0 nM | concentration at 4 h [4, 13]: 100 ± 100 nM | concentration at 8 h [4, 13]: 800 ± 500 nM | concentration at 24 h [4, 13]: 0 nM | concentration at 0.5 h [4, 14]: 400 ± 200 nM | concentration at 1 h [4, 14]: 600 ± 100 nM | concentration at 2 h [4, 14]: 0 nM | concentration at 4 h [4, 14]: 300 ± 100 nM | concentration at 8 h [4, 14]: 200 ± 200 nM | concentration at 24 h [4, 14]: 0 nM | concentration at 0.5 h [4, 15]: 1000 ± 100 nM | concentration at 1 h [4, 15]: 3600 ± 1200 nM | concentration at 2 h [4, 15]: 0 nM | concentration at 4 h [4, 15]: 500 ± 200 nM | concentration at 8 h [4, 15]: 0 nM | concentration at 24 h [4, 15]: 0 nM | concentration at 0.5 h [4, 16]: 0 nM | concentration at 1 h [4, 16]: 0 nM | concentration at 2 h [4, 16]: 0 nM | concentration at 4 h [4, 16]: 0 nM | concentration at 8 h [4, 16]: 0 nM | concentration at 24 h [4, 16]: 0 nM | PWT, g Mean ± SEM [5]: 0.62 ± 0.05 g | PWT Post-treatment Mean ± SEM ([6]; 30 min after treatment, PS 8% gel or sulindac 5.3% (in DMSO) on both hind paws 30 min after NTG): 0.55 ± 0.02 g | PWT Baseline Mean ± SEM ([6]; baseline of the group, before NTG and treatment): 1.43 ± 0.15 g | sulindac levels relative to those of PS [7]: around 25% | Fold difference (distal vs proximal) [8]: 8.5 fold
